Values quoted from earlier work in patent US20070081962A1, “Novel delivery of immune response modifiers for removal of chronic tattoos” (priority 2005, published 2007).

Test system: freshly applied tattoos
Details: guinea pigs tattooed with commonly used tattoo inks; topical 5% cream, initiated within six hours of the tattoo application and continued for seven days

## CC(C)Cn1cnc2c(N)nc3ccccc3c21 [irmiquimod, 1-(2-methylpropyl)-1H-imidazo[4,5-c]quinolin-4-amine]
  removal of freshly applied tattoos: effective for removing freshly applied tattoos
